Inhibition and IC50 data for 10 compounds are collected here from patent US9006257B2, “Bicyclic compounds as mPGES-1 inhibitors” (Glenmark Pharmaceuticals S.A., priority 2012, dated 2015).

The target of the assay is T1, Recombinant human mPGES-1 (Homo sapiens, UniProt O14684).
T1 construct: made in house; host or cells: CHO cells
T1 sequence (O14684 1-152): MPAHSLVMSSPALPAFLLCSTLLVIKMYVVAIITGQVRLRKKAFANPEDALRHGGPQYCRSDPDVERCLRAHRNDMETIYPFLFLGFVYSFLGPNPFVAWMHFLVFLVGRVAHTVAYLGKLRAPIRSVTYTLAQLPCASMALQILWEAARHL
The experiment in a line: In-vitro mPGES-1 inhibitor screening (inhibition of PGE2 formation from PGH2, HTRF detection). It is filed as biochemical. The conditions noted are these: for inhibition at 1 µM: 1 μM test compound, read-out: Percentage inhibition at 1 μM; for inhibition at 1 µM / inhibition at 10 µM: crude microsomal fraction, 15 μM PGH2; for inhibition at 10 µM: 10 μM test compound, read-out: Percentage inhibition at 10 μM; for IC50: class symbol, concentration response curve. The text has this:
In-Vitro Protocol for Screening of mPGES-1 Inhibitors:
mPGES-1 (microsomal prostaglandin E synthase-1) is a microsomal enzyme that converts endoperoxide substrate PGH2 (prostaglandin H2) to product PGE2 (prostaglandin E2) by isomerization in the presence of reduced glutathione (GSH). mPGES-1 inhibitors were screened by assessing their ability to inhibit formation of PGE2 from PGH2 in presence of mPGES-1 using an anti-PGE2 antibody based detection method. Recombinant human mPGES-1 was generated in-house by expression in CHO cells (Ouellet M et al. (2002), Protein Expression and Purification 26: 489-495). The assay was set up using crude microsomal fractions at protein concentration of 40-60 μg/mL. Test compounds were prepared in 100% dimethyl sulfoxide (DMSO) to obtain 20 mM stock solution and then diluted using assay buffer comprising 0.1 M Potassium phosphate buffer with 2 mM EDTA. The final concentration of DMSO in reaction was 0.5% (v/v). Negative controls were comprised of all assay reagents except the enzyme. Positive controls were comprised of the enzyme reaction in the absence of any inhibitor. Test compounds were incubated for 10 minutes in assay buffer containing 2.5 mM GSH and mPGES-1 enzyme followed by addition of PGH2 at a concentration of 15 μM for 1 minute. The reaction was stopped by addition of Stannous chloride (11 mg/ml) and PGE2 levels were measured (Masse F et al. (2005), Journal of Biomolecular Screening 10(6) 599-605., Goedken R E et al. (2008), Journal of Biomolecular Screening 13(7): 619-625) by HTRF kit (CisBio)).
Inhibition of mPGES-1 enzyme activity was measured using the percent of reaction occurring in the positive control. Concentration response curves were plotted using percent inhibition of maximum enzyme reaction. The IC50 value was calculated from the concentration response curve by nonlinear regression analysis using GraphPad PRISM software.
(In TR-FRET formats the signal depends on donor and acceptor labels being close together.)

Structures are written as SMILES.

By inhibition is commonly meant the share of the control response that was lost under treatment. By IC50 is commonly meant the concentration that gives 50% inhibition. Consider `CC(C)(C)C(=O)NCc1ccc(Cl)c(C(=O)Nc2cccc3c(Oc4cccc(C(F)(F)F)c4)ncnc23)c1` [Example-10, 2-Chloro-5-(pivalamidomethyl)-N-(4-(3-(trifluoromethyl)phenoxy)quinazolin-8-yl)benzamide], for which the inhibition at 1 µM was found to be 99.7%, the inhibition at 10 µM turned out to be 98.9% and the half-maximal inhibitory concentration (IC50) was < 50 nM.

As to `CC1(C)CCC(Oc2nccc3c(NC(=O)c4c(Cl)ccc(CNC(=O)C(C)(C)C)c4F)cccc23)CC1` [Example-35, 6-Chloro-N-(1-((4,4-dimethylcyclohexyl)oxy)isoquinolin-5-yl)-2-fluoro-3-(pivalamidomethyl)benzamide], the inhibition at 1 µM turned out to be 100%, the inhibition at 10 µM was found to be 100% and the IC50 was < 50 nM.

On to `CC(C)(C)Nc1ncnc2c(NC(=O)c3c(Cl)ccc(CNC(=O)C(C)(C)C)c3F)cccc12` [Example-62, N-(4-(tert-Butylamino)quinazolin-8-yl)-6-chloro-2-fluoro-3-(pivalamidomethyl)benzamide], for which the inhibition at 1 µM came out at 97.3%, the inhibition at 10 µM turned out to be 97.8% and the IC50 is < 50 nM.

`Cc1nc(N2CCOCC2)c2cccc(NC(=O)c3c(Cl)ccc(CNC(=O)C(C)(C)C)c3F)c2n1` [Example-58, 6-Chloro-2-fluoro-N-(2-methyl-4-morpholinoquinazolin-8-yl)-3-(pivalamidomethyl)benzamide]: the inhibition at 1 µM stood at 51.3% and the inhibition at 10 µM is 93.4%.

Regarding `Cc1nc(NC(C)C)c2cccc(NC(=O)c3c(Cl)ccc(CNC(=O)C(C)(C)C)c3F)c2n1` [Example-57, 6-Chloro-2-fluoro-N-(4-(isopropylamino)-2-methylquinazolin-8-yl)-3-(pivalamidomethyl)benzamide], the inhibition at 1 µM was determined as 74.1%, the inhibition at 10 µM is 96% and the IC50 is > 100 nM.

As for `Cc1nc(NC2CCC(F)(F)CC2)c2cccc(NC(=O)c3c(Cl)ccc(CNC(=O)C(C)(C)C)c3F)c2n1` [Example-60, 6-Chloro-N-(4-((4,4-difluorocyclohexyl)amino)-2-methylquinazolin-8-yl)-2-fluoro-3-(pivalamidomethyl)benzamide], the inhibition at 1 µM stood at 86.5%, the inhibition at 10 µM worked out at 91.7% and the IC50 was > 100 nM.

For `CC(C)(C)C(=O)NCc1ccc(Cl)c(C(=O)Nc2cccc3c(Nc4cccc(C(F)(F)F)c4)nccc23)c1F` [Example-1, 6-Chloro-2-fluoro-3-(pivalamidomethyl)-N-(1-((3-(trifluoromethyl)phenyl)amino)isoquinolin-5-yl)benzamide], the inhibition at 1 µM was found to be 95.2%, the inhibition at 10 µM was determined as 96.7% and the half-maximal inhibitory concentration (IC50) was < 50 nM.

On to `CC(C)(C)C(=O)NCc1ccc(Cl)c(C(=O)Nc2cccc3c(Oc4cccc(C(F)(F)F)c4)nccc23)n1` [Example-6, 3-Chloro-6-(pivalamidomethyl)-N-(1-(3-(trifluoromethyl)phenoxy)isoquinolin-5-yl)picolinamide], for which the inhibition at 1 µM was determined as 93%, the inhibition at 10 µM was 95.9% and the IC50 lay within 50 to 100 nM.

For `CCOc1ccnc2c(NC(=O)c3c(Cl)ccc(CNC(=O)C(C)(C)C)c3F)cccc12` [Example-63, 6-Chloro-N-(4-ethoxyquinolin-8-yl)-2-fluoro-3-(pivalamidomethyl)benzamide], the inhibition at 1 µM came out at 90.8%, the inhibition at 10 µM was found to be 94.7% and the half-maximal inhibitory concentration (IC50) is < 50 nM.

For `CC(C)(C)C(=O)NCc1ccc(Cl)c(C(=O)Nc2cccc3c(Oc4ccc(F)c(C(F)(F)F)c4)ncnc23)c1F` [Example-52, 6-Chloro-2-fluoro-N-(4-(4-fluoro-3-(trifluoromethyl)phenoxy)quinazolin-8-yl)-3-(pivalamidomethyl)benzamide], the inhibition at 1 µM was 94.5%, the inhibition at 10 µM came to 95.3% and the IC50 was < 50 nM.
